Columns and labels:
[1] = test system: cardiomyocytes; experiment: RT-qPCR of cardiomyocytes isolated from doxorubicin-treated mice; assay type: in vivo, mouse
Method: Isolation of cardiomyocytes from mouse heart was carried out with Langendorff perfusion apparatus according to the standard protocol described above. Total RNA extraction was performed with TRIZOL Reagent (Invitrogen) and purification with RNeasy Mini Kit (QIAGEN) according the manufacturer's protocol. The concentration of RNA obtained was measured using a super-sensitive NanoDrop ND1000 spectrophotometer (Thermo Scientific). Reverse transcription reaction was performed by using the High Capacity RNA-to-cDNA Kit (Applied Biosystem). In brief, cDNA was generated from 1 μg of RNA by RT Enzyme Mix according to the manufacturer's instructions on a PCR thermocycler (S1000TM Thermal Cycler, BIO-RAD, USA). The resulting cDNA was diluted to a final concentration of 50 ng/μl for PCR amplification. Real time quantitative PCR was carried out by using a 7900HT Fast Real-Time PCR System (Applied Biosystems). Mouse TaqMan® Gene primers and probes (FAM, Applied Biosystem), were used in PCR amplification. Mouse GAPDH was used as internal control (VIC®/MGB Probe, Primer Limited, Applied Biosystem). The following TaqMan® Gene primers/probes were used Sdha (Mm01352366_m1), ATP5a1: (Mm00431960_m1), Ndufa3 (Mm01329704_g1), Ppargcla (PGC-1α, Mm01208835_m1), Ppargc1b (PGC-1β, Mm00504720_m1), Esrra (EER, Mm00433143_m1), Trp53inp1 (Mm00458141_m1), Fas: (Mm00433237_m1), Apaf1 (Mm01223702_m1), Bax (Mm00432051_m1), Mdm2 (Mm01233136_m1), and GAPDH: Mouse GAPD (GAPDH) Endogenous Control (VIC®/MGB Probe, Primer Limited). Comparative analyses of each gene were performed using company-provided softwares, SDS2.4 and RQ Manager 1.2.1 (Applied Biosystems). All amplifications were carried out at least in duplicates. The mRNA expression levels of each gene were calculated by using the 2-ΔΔCt (comparative threshold cycle) method, as detailed by the manufacturer (Applied Biosystems).

[2] = test system: heart sections; experiment: Masson's Trichrome staining of heart sections (fibrosis); assay type: in vivo, mouse
Method: FIGS. 6a-e: a. Schematic of chronic doxorubicin treatment protocol. All mice received a baseline MRI scan first. Tamoxifen was then administered by gavage at a dose of 25 mg/kg, once a day for 5 consecutive days. […] After the last MRI scan, mice were sacrificed and the hearts were removed and examined for histological changes and Top2b expression. b. RT-qPCR of genes involved in mitochondrial biogenesis. Mice were treated with doxorubicin (5 mg/kg) once a week for 5 weeks. Cardiomyocytes were isolated from the heart 72 hr after the last dose. Total RNA was extracted for RTqPCR analysis of genes important for the function and structure of the mitochondria. For each mRNA shown relative expression is graphed for Top2b^+/+ Control, Top2b^+/+ Dox, Top2b^Δ/Δ Control, and Top2b^Δ/Δ Dox (from left to right). One way ANOVA was used to determine statistical significance (p<0.05). Error bars indicated STDEV. The asterisks indicated a significant difference (p<0.05). c. ROS production and quantitation. Representative images of heart sections stained with Dihydroethidium (DHE), which, after oxidation, intercalated into DNA and stained the nuclei red. Mice were treated with doxorubicin (5 mg/kg) once a week for 5 weeks. […] The numbers of DHE-positive and total nuclei were counted as described and the percentage of DHE-positive nuclei was determined. […]

[3] = test system: mouse heart; experiment: Cardiac MRI for measuring cardiac function after chronic doxorubicin; conditions: mice, doxorubicin 5 mg/kg ip once a week for 5 weeks; decreased from 57% (Example 4, FIG. 13)
Method: Before Cre induction, cardiac MRI scan was performed on each mouse to examine the baseline ejection fraction. Cardiomyocyte-specific Cre induction was carried out by treating mice with tamoxifen. […] Doxorubicin treatment (5 mg/kg, i.p., once a week for 5 weeks) was started 7 days after the second MRI scan. Two weeks after the last dose of doxorubicin, a third MRI scan was performed (FIG. 6a).
Every mouse in the EF experiments received 3 MRI scans, i.e., a baseline scan, a second scan 2 weeks after the end of tamoxifen treatment, and a third scan 2 weeks after the last dose of doxorubicin. […] Mice were anesthetized with isoflurane (2.5% in 97.5% O2), and scanned on a 7.0 T Biospec small animal scanner (Bruker Biospin Inc., Billerica, Mass.). Imaging gradients with 60 mm inner diameter (ID) were used with a 35 mm ID linear birdcage-style volume resonator. T1-weighted anatomic reference images were acquired using a three dimension (3D) fast low-angle shot (FLASH) gradient echo sequence. A retrospectively gated FLASH pulse sequence was used to acquire cardiac cine images with excellent contrast between bright blood and adjacent myocardium. To measure volumetric left ventricular ejection fraction (LVEF), at least 6 short axis images were scanned at 1 mm interval from the apex to the base of the heart. End-diastolic (ED) and end-systolic (ES) left ventricular volumes were obtained by the biplane area length method, and LVEF was calculated with the equation: [(ED-ES)/ED]/100.
Two weeks after completion of tamoxifen treatment mice were treated with doxorubicin or drug vehicle. Two cohorts of mice were treated with different schedules. […] To evaluate the chronic effect of doxorubicin on cardiac function, doxorubicin (5 mg/kg, i.p.) was administered once a week for 5 weeks, and cardiac function was examined 2 weeks after the last dose of doxorubicin by using MRI.
The effect of chronic doxorubicin treatment (5 mg/kg, ip, once a week for 5 weeks) was evaluated for its effect on ejection fraction.

[4] = test system: DNA double strand breaks in the heart; experiment: Detection of DNA double strand breaks (γ-H2AX staining) in heart sections; assay type: in vivo, mouse; conditions: acute doxorubicin 25 mg/kg, 16 h
Method: After mice were sacrificed, hearts were perfused with ice-cold PBS, quickly removed, embedded in OCT compound (Fisher Scientific), and snap-frozen in liquid nitrogen. The heart was sectioned to 5 μm-thick slices using a cryostat. Heart sections were stored at −80° C. until immunofluorescence staining was performed. Heart sections were rinsed with PBS at room temperature, fixed in BD Cytofix/Cytoperm solution (BD Biosciences) for 15 m, washed in PBS, and permeabilized in BD Perm/Wash solution for 30 m. Heart sections were first blocked with BSA (2 mg/ml) for 30 m, then incubated with an mouse monoclonal anti-γ-H2AX antibody conjugated with Alexa Fluor 555 (Clone N1-431, BD Biosciences) for 1 h. Nuclei were stained with DAPI (Sigma, 1 μg/ml PBS), and the slides were sealed for examination with an Olympus epifluorescence microscope (Model BX51). To quantify DSBs, the numbers of γ-H2AX-positive nuclei and the total nuclei were counted in 5 microscopic fields (400×) per section. For each mouse, five heart sections were counted to determine the percentage of γ-H2AX-positive nuclei.
To further confirm the cardio-protective effect of Dex, DNA double strand breaks were assessed in heart tissues. Dexrazoxane (100 mg/kg) was injected (ip) 8 hrs prior to doxorubicin (25 mg/kg) treatment. Hearts were harvested 16 hr after doxorubicin treatment. The percentage of γH2AX-positive nuclei was counted in 5 fields (400×) in each heart section. Five sections were counted in each heart to determine the average percentage of γH2AX-positive nuclei.

[5] = Top2b+/+ cardiomyocytes, 16 hrs after doxorubicin 25 mg/kg i.p.

COc1cccc2c1C(=O)c1c(O)c3c(c(O)c1C2=O)C[C@@](O)(C(=O)CO)C[C@@H]3O[C@H]1C[C@H](N)[C@H](O)[C@H](C)O1 [doxorubicin]
Transcript of Apaf1, Bax, and Fas (apoptosis pathway genes) [1, 5]: increases
Up-regulation of the transcript encoding p53DINP1 (TP53INP1) [1, 5]: 200 fold
Genes involved in mitochondrial biogenesis (RT-qPCR) ([1]; Top2b+/+ hearts, chronic doxorubicin 5 mg/kg once a week for 5 weeks): Reduction of genes involved in mitochondrial biogenesis
Transcripts of Ndufa3, Sdha and Atp5a (electron transport chain) ([1]; doxorubicin treated Top2b+/+ cardiomyocytes, 72 h, much less so in Top2bΔ/Δ): decreased
Erra transcript ([1]; doxorubicin-treated wild type cardiomyocytes, 72 h, not in Top2b-deleted): down-regulated
Fibrosis in the hearts (Masson's Trichrome) ([2]; Top2b+/+ mice, doxorubicin 5 mg/kg once a week for 5 weeks, hearts 72 h after last dose): patchy fibrosis
Fibrosis and other pathological changes after chronic treatment, relative to Top2b+/+ hearts ([2]; Top2bΔ/Δ hearts, chronic doxorubicin 5 mg/kg once a week for 5 weeks): much less so
Ejection fraction after treatment [3]: 45%
DSBs in the nuclei (γ-H2AX-positive nuclei) ([4]; Top2b+/+ mice): caused DSBs
Reduction of doxorubicin-caused DSBs in Top2bΔ/Δ mice versus Top2b+/+ mice [4]: 60%

Reference: US9169509B2, “Topoisomerase 2b as a predictor of susceptibility to anthracycline-induced cardiotoxicity” (Board of Regents, The University of Texas System, priority 2013, dated 2015)
